# Assay results taken from patent US20110251379A1, “COMPOUNDS USEFUL FOR TREATING NEURODEGENERATIVE DISORDERS” (Satori Pharmaceuticals, Inc., priority 2010, published 2011).
# Like-named read-outs stand apart in the source and are kept apart here.
# System: amyloid-beta (1-42) peptide
# Experiment: ELISA assay of amyloid-beta (1-42) in conditioned media of 2B7 cells
# Format: cell-based
# Details: for inhibition at 10 µM: Aβ-42, 10 umol/L; for IC50: Aβ-42, 2B7 cells, 5 hours, read-out: IC50 range
# How it was run: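 2B7 cells were treated with compounds for 5 hours at 37° C in media with 1% DMSO. Conditioned media, diluted 1:2 in blocking buffer, went into a sandwich ELISA with 6E10 capture and an HRP-labelled detection antibody, read by TMB at 450 nm. Values came from an Aβ peptide standard curve.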
# [1] = Aβ-42, 100 umol/L, read-out: % Inhibition (range)
SMILES,IC50 [µM],IC50 (5 h) [µM],also measured
C[C@@H]1C[C@H]([C@H](O)C(C)(C)O)OC2C1[C@@]1(C)CC[C@@]34C[C@@]35CC[C@H](O)C(C)(C)[C@@H]5CC[C@H]4[C@]1(C)[C@H]2O (some centres unmarked) [drawing 887],1 to 10,–,inhibition at 10 µM (read-out: % Inhibition (range)): < 25%
CC(=O)O[C@@H]([C@H]1C[C@@H](C)[C@H]2[C@H](O1)[C@H](O)[C@@]1(C)[C@@H]3CC[C@H]4C(C)(C)[C@@H](O[C@@H](CN(C)C)OCCN(C)C)CC[C@@]45C[C@@]35CC[C@]21C)C(C)(C)O,–,1 to 10,–
CC(=O)O[C@@H]([C@H]1C[C@@H](C)C2C(O1)[C@H](O)[C@@]1(C)[C@@H]3CC[C@H]4C(C)(C)[C@@H](OC(=O)CN(C)C)CC[C@@]45C[C@@]35CC[C@]21C)C(C)(C)O (some centres unmarked),–,≤ 1,–
CC(=O)O[C@@H]([C@H]1C[C@@H](C)C2C(O1)C(=O)[C@@]1(C)[C@@H]3CC[C@H]4C(C)(C)[C@@H](O)CC[C@@]45C[C@@]35CC[C@]21C)C(C)(C)O (some centres unmarked),–,1 to 10,–
CC(=O)O[C@@H]([C@H]1C[C@@H](C)C2=C(O1)[C@H](O)[C@@]1(C)[C@@H]3CC[C@H]4C(C)(C)[C@@H](O[C@H]5CN(O)CCO5)CC[C@@]45C[C@@]35CC[C@]21C)C(C)(C)O,–,≤ 1,–
CC1CC(CN(CC(C)(C)O)S(C)(=O)=O)OC2C1C1(C)CCC34CC35CCC(O)C(C)(C)C5CCC4C1(C)C2O (centres unmarked),> 10,–,–
CC(=O)O[C@@H]([C@H]1C[C@@H](C)C2C(O1)[C@H](O)[C@@]1(C)[C@@H]3CC[C@H]4C(C)(C)[C@@H](OC(CO)OCCO)CC[C@@]45C[C@@]35CC[C@]21C)C(C)(C)O (some centres unmarked),–,≤ 1,–
C[C@@H]1C[C@H]([C@H](O)C(C)(C)OC(=O)O)OC2C1[C@@]1(C)CC[C@@]34C[C@@]35CC[C@H](O[C@@H]3OC[C@@H](O)[C@H](O)[C@H]3O)C(C)(C)[C@@H]5CC[C@H]4[C@]1(C)[C@H]2O (some centres unmarked),–,1 to 10,–
CC(=O)O[C@@H]([C@H]1C[C@@H](C)[C@H]2[C@H](O1)[C@H](O)[C@@]1(C)[C@@H]3CC[C@H]4C(C)(C)[C@@H](O[C@H]5CN(S(C)(=O)=O)CCO5)CC[C@@]45C[C@@]35CC[C@]21C)C(C)(C)O,–,≤ 1,–
CNCC1CC(C)C2C(O1)C(O)C1(C)C3CCC4C(C)(C)C(OC5OCC(O)C(O)C5O)CCC45CC35CCC21C (centres unmarked),> 10,–,–
CC1CC(C(O)C(C)(C)O)OC2C1C1(C)CCC34CC35CCC(OC3CN(C(=O)c6ccncc6)CCO3)C(C)(C)C5CCC4C1(C)C2O (centres unmarked),–,–,"% Inhibition (range) (Aβ-42, 20 umol/L): E E (% inhibition of 25-75%); % Inhibition (range) (Aβ-42, 100 umol/L): E E (% inhibition of 25-75%)"
CC(=O)N(CC1CC(C)C2C(O1)C(O)C1(C)C3CCC4C(C)(C)C(O)CCC45CC35CCC21C)C(C)C (centres unmarked) [drawing 845],1 to 10,–,–
CC1CC(C(O)C(C)(C)O)OC2C1C1(C)CCC34CC35CCC(OC3CN(CCF)CCO3)C(C)(C)C5CCC4C1(C)C2O (centres unmarked),–,–,"% Inhibition (range) (Aβ-42, 100 umol/L): F (% inhibition of <25%)"
CC(=O)O[C@@H]([C@H]1C[C@@H](C)C2C(O1)[C@H](O)[C@@]1(C)[C@@H]3CC[C@H]4C(C)(C)[C@H](NO)CC[C@@]45C[C@@]35CC[C@]21C)C(C)(C)O (some centres unmarked),–,1 to 10,–
CCN1CCOC(OC2CCC34CC35CCC3(C)C6C(C)CC(C(OC(C)=O)C(C)(C)O)OC6C(OC(C)=O)C3(C)C5CCC4C2(C)C)C1 (centres unmarked),> 10,–,–
COCCN1CCOC(O[C@H]2CC[C@]34C[C@]35CC[C@]3(C)C6C(O[C@@H]([C@H](OC(C)=O)C(C)(C)O)C[C@H]6C)[C@H](O)[C@@]3(C)[C@@H]5CC[C@H]4C2(C)C)C1 (some centres unmarked),–,≤ 1,–
COCCN[C@H]1CC[C@]23C[C@]24CC[C@]2(C)C5C(O[C@@H]([C@H](OC(C)=O)C(C)(C)O)C[C@H]5C)[C@H](O)[C@@]2(C)[C@@H]4CC[C@H]3C1(C)C (some centres unmarked),–,1 to 10,–
CC(C)C(=O)OC(C1CC(C)C2C(O1)C(O)C1(C)C3CCC4C(C)(C)C(OC5CN(C6COC6)CCO5)CCC45CC35CCC21C)C(C)(C)O (centres unmarked) [drawing 866],> 10,–,–
CC1CC(CNC(C)(C)C)OC2C1C1(C)CCC34CC35CCC(OS(C)(=O)=O)C(C)(C)C5CCC4C1(C)C2O (centres unmarked),> 10,–,–
CC1CC(C(O)C(C)(C)O)OC2C1C1(C)CCC34CC35CCC(OC3CN(C(=O)C6CCOCC6)CCO3)C(C)(C)C5CCC4C1(C)C2O (centres unmarked),–,–,"% Inhibition (range) (Aβ-42, 20 umol/L): E (% inhibition of 25-75%)"
CC(=O)O[C@@H]([C@H]1C[C@@H](C)C2C(O1)C(N)[C@@]1(C)[C@@H]3CC[C@H]4C(C)(C)[C@@H](O[C@@H]5OC[C@@H](O)[C@H](O)[C@H]5O)CC[C@@]45C[C@@]35CC[C@]21C)C(C)(C)O (some centres unmarked),–,1 to 10,–
CCC(=O)O[C@@H]([C@H]1C[C@@H](C)C2C(O1)C(N)[C@@]1(C)[C@@H]3CC[C@H]4C(C)(C)[C@@H](O)CC[C@@]45C[C@@]35CC[C@]21C)C(C)(C)O (some centres unmarked),–,–,inhibition at 100 µM [1]: 25 to 75%
CC(=O)OC(C)(C)[C@@H](O)[C@H]1C[C@@H](C)C2=C(O1)[C@H](O)[C@@]1(C)[C@@H]3CC[C@H]4C(C)(C)[C@@H](OC5OC[C@@H](O)[C@H](O)[C@H]5O)CC[C@@]45C[C@@]35CC[C@]21C (some centres unmarked),–,1 to 10,–
CC(=O)O[C@@H]([C@H]1C[C@@H](C)C2C(O1)[C@H](O)[C@@]1(C)[C@@H]3CC[C@H]4C(C)(C)C(=O)CC[C@@]45C[C@@]35CC[C@]21C)C(C)(C)O (some centres unmarked),–,–,inhibition at 100 µM [1]: 25 to 75%
CC1CC(C(O)C(C)(C)O)OC2C1C1(C)CCC34CC35CCC(OC3CN(C(=O)c6cccnc6)CCO3)C(C)(C)C5CCC4C1(C)C2O (centres unmarked),–,–,"% Inhibition (range) (Aβ-42, 100 umol/L): F (% inhibition of <25%)"

SMILES,IC50 [µM],IC50 (5 h) [µM],also measured
CC(=O)OC(C)(C)[C@@H](O)[C@H]1C[C@@H](C)C2C(O1)[C@H](O)[C@@]1(C)[C@@H]3CC[C@H]4C(C)(C)[C@@H](O[C@@H]5OC[C@@H](O)[C@H](O)[C@H]5O)CC[C@@]45C[C@@]35CC[C@]21C (some centres unmarked),–,1 to 10,–
CC(=O)N(Cc1ccccc1F)CC1CC(C)C2C(O1)C(O)C1(C)C3CCC4C(C)(C)C(O)CCC45CC35CCC21C (centres unmarked),1 to 10,–,–
CC(=O)O[C@@H]([C@H]1C[C@@H](C)[C@H]2[C@H](O1)[C@H](O)[C@@]1(C)[C@@H]3CC[C@H]4C(C)(C)[C@@H](O[C@H]5CN(CCOCCOCCNC(=O)CCCC[C@@H]6SC[C@@H]7NC(=O)N[C@@H]76)CCO5)CC[C@@]45C[C@@]35CC[C@]21C)C(C)(C)O,–,≤ 1,–
CC(=O)OC(C1CC(C)C2C(O1)C(OC(N)=O)C1(C)C3CCC4C(C)(C)C(OC(N)=O)CCC45CC35CCC21C)C(C)(C)O (centres unmarked),> 10,–,–
CC(=O)OC(C1CC(C)C2C(O1)C(O)C1(C)C3CCC4C(C)(C)C(OC(=O)C5CCN5)CCC45CC35CCC21C)C(C)(C)O (centres unmarked),≤ 1,–,–
CC1CC(CO)OC2C1C1(C)CCC34CC35CCC(OC3OCC(O)C(O)C3O)C(C)(C)C5CCC4C1(C)C2O (centres unmarked) [drawing 783],1 to 10,–,–
C[C@@H]1C[C@H]([C@H](O)C(C)(C)O)OC2C(=O)[C@@]3(C)[C@@H]4CC[C@H]5C(C)(C)[C@@H](O)CC[C@@]56C[C@@]46CC[C@]3(C)C21 (some centres unmarked) [drawing 893],–,–,inhibition at 10 µM (read-out: % Inhibition (range)): < 25%
CC1CC(C(O)C(C)(C)O)OC2C1C1(C)CCC34CC35CCC(OC3CN(C(=O)c6ccccn6)CCO3)C(C)(C)C5CCC4C1(C)C2O (centres unmarked),> 10,–,–
CC(=O)N(Cc1cc(F)cc(F)c1)CC1CC(C)C2C(O1)C(O)C1(C)C3CCC4C(C)(C)C(OC(=O)c5cccnc5)CCC45CC35CCC21C (centres unmarked),1 to 10,–,–
CC(=O)OC(C1CC(C)C2C(O1)C(O)C1(C)C3CCC4C(C)(C)C(OC(=O)C5CNC5)CCC45CC35CCC21C)C(C)(C)O (centres unmarked) [drawing 791],≤ 1,–,–
C[C@@H]1CC[C@@]2(NC1)OC1C[C@H]3C4CC=C5C[C@@H](O)CC[C@]5(C)C4CC[C@]3(C)C1[C@@H]2C (some centres unmarked),–,–,"inhibition at 2.5 µM (Aβ-42, 2.5 umol/L, read-out: % Inhibition (range)): < 25%"
COCO[C@H]1[C@H](O)COC(O[C@H]2CC[C@]34C[C@]35CC[C@]3(C)C6C(O[C@@H]([C@@H]7OC(=O)OC7(C)C)C[C@H]6C)[C@H](O)[C@@]3(C)[C@@H]5CC[C@H]4C2(C)C)[C@@H]1O (some centres unmarked),–,1 to 10,–
CC1CC(C(O)C(C)(C)O)OC2C1C1(C)CCC34CC35CCC(OC3CN(C(=O)C6CC6)CCO3)C(C)(C)C5CCC4C1(C)C2O (centres unmarked),–,–,"% Inhibition (range) (Aβ-42, 20 umol/L): E (% inhibition of 25-75%)"
CC(=O)O[C@@H]([C@H]1C[C@@H](C)[C@H]2[C@H](O1)[C@H](O)[C@@]1(C)[C@@H]3CC[C@H]4C(C)(C)[C@@H](OS(C)(=O)=O)CC[C@@]45C[C@@]35CC[C@]21C)C(C)(C)O,–,> 10,–
CC(=O)N(CC1CC(C)C2C(O1)C(O)C1(C)C3CCC4C(C)(C)C(O)CCC45CC35CCC21C)C1CCC1 (centres unmarked),> 10,–,–
CC1CC(C(O)C(C)(C)O)OC2C1C1(C)CCC34CC35CCC(OC3CN(C(=O)CC6CCCCC6)CCO3)C(C)(C)C5CCC4C1(C)C2O (centres unmarked),≤ 1,–,–
CC1CC(C(O)C(C)(C)O)OC2C1C1(C)CCC34CC35CCC(OC3CN(C(=O)c6ccc(F)cc6)CCO3)C(C)(C)C5CCC4C1(C)C2O (centres unmarked),1 to 10,–,–
CC1CC(C(O)C(C)(C)O)OC2C1C1(C)CCC34CC35CCC(OC3CN(C(=O)c6cc(F)cc(F)c6)CCO3)C(C)(C)C5CCC4C1(C)C2O (centres unmarked),–,–,"% Inhibition (range) (Aβ-42, 20 umol/L): E E (% inhibition of 25-75%); % Inhibition (range) (Aβ-42, 100 umol/L): E E (% inhibition of 25-75%)"
CC(=O)OC(C1CC(C)C2C(O1)C(OC(=O)C(F)(F)F)C1(C)C3CCC4C(C)(C)C(O)CCC45CC35CCC21C)C(C)(C)O (centres unmarked),≤ 1,–,–
CC1CC(C(O)C(C)(C)O)OC2C1C1(C)CCC34CC35CCC(OC3CN(C(=O)Cc6ccncc6)CCO3)C(C)(C)C5CCC4C1(C)C2O (centres unmarked),–,–,"% Inhibition (range) (Aβ-42, 100 umol/L): F (% inhibition of <25%)"
CC1CC(CO)OC2C1C1(C)CCC34CC35CCC(OC3OCC(O)C(O)C3O)C(C)(C)C5CCC4C1(C)C2O (centres unmarked) [drawing 782],> 10,–,"% Inhibition (range) (Aβ-42, 20 umol/L): E (% inhibition of 25-75%)"
CC1CC(C2OC(=O)OC2(C)C)OC2C1C1(C)CCC34CC35CCC(O)C(C)(C)C5CCC4C1(C)C2O (centres unmarked),> 10,–,–
CC1CC(C(OC(=O)C(C)(C)C)C(C)(C)O)OC2C1C1(C)CCC34CC35CCC(O)C(C)(C)C5CCC4C1(C)C2O (centres unmarked),> 1,–,–
CC1CC(C(OC(=O)C2CCC2)C(C)(C)O)OC2C1C1(C)CCC34CC35CCC(OC3CN(C6COC6)CCO3)C(C)(C)C5CCC4C1(C)C2O (centres unmarked) [drawing 865],> 10,–,–
